From patent EP1117420B1, “PHARMACEUTICAL COMPOSITIONS BASED ON ALPHA-CYCLODEXTRIN FOR THE ORAL ADMINISTRATION OF LH-RH ANALOGUES” (LABORATOIRE THERAMEX S.A., priority 1998, dated 2000) come the findings set out here.

For assay [1], the target named is T1, LH-RH receptors (Rattus norvegicus, UniProt P30969).
T1 sequence (P30969 1-327): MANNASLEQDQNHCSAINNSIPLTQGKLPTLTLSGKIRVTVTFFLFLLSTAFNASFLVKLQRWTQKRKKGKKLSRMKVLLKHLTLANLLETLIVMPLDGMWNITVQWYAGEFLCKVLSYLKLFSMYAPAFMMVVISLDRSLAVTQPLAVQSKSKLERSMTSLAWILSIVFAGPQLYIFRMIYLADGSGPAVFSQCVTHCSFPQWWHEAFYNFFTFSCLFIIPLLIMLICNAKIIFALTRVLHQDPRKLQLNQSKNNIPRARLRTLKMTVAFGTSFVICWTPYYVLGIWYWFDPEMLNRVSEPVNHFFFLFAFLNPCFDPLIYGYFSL
The experiment in a line: stimulation of LH secretion after oral gavage (plasma LH by radioimmunoassay). It counts as in vivo, Sprague-Dawley rats. Further details: from tissue; host or cells: pituitary of living adult male Sprague-Dawley rats (in vivo). Conditions: 2 nmoles/rat by oral gavage, blood 2 hours after administration, male rats. On the procedure:
[…] […] Total plasma testosterone (Diagnostic System Laboratories) and LH (Amersham Pharmacia Biotech) determinations were performed by radioimmunoassay. In screening 2-hour experiments, each group comprised between 6 and 8 rats; each time point of the kinetic study was studied on four animals.
Two hours after administration, plasma LH levels were measured on eight rats per dose group (Figure 7).
(§1) Then, the α-CD solution was added to fill the flask up to 10 ml to make a 2 nmol/ml solution of which 1ml was administered by oral gavage to each rat.

The target of assay [2] is T1, LH-RH receptors. As to the kind of experiment: stimulation of testosterone secretion after oral gavage (plasma testosterone by radioimmunoassay). Conditions: for stimulation of testosterone secretion: 5 Ng/kg oral, 2 hours, Figure 3; for total plasma testosterone (nmol/l) (m ± sem): 2 nmoles/rat by oral gavage, blood 2 hours after administration, male rats. It counts as in vivo, Sprague-Dawley rats. Also on record: from tissue; host or cells: pituitary of living adult male Sprague-Dawley rats (in vivo). The method, then:
For screening purposes, blood samples were drawn 2 hours after oral administration of a common dose of 2 nmoles/rat of LH-RH peptide agonists in an aqueous solution containing 10 or 100 mM of α-CD (Tables 1 and 2; Figures 1, 4 and 6). […] Total plasma testosterone (Diagnostic System Laboratories) and LH (Amersham Pharmacia Biotech) determinations were performed by radioimmunoassay. In screening 2-hour experiments, each group comprised between 6 and 8 rats; each time point of the kinetic study was studied on four animals.
All α-CD derivatives were purchased from Cyclolab (Budapest, Hungary).
as §1
After overnight magnetic stirring at room temperature, each solution was given to rats by oral gavage in a 4 ml/kg volume to administer the same dose of 5 µg/kg of example 2 without or with increasing concentrations of α-CD.

The target in assay [3] is T1, LH-RH receptors. As to the kind of experiment: inhibition of ovulation by oral administration (ova in oviduct on day of expected estrus). It counts as in vivo, Wistar rats. Further details: from tissue; host or cells: pituitary of living adult female Wistar rats (in vivo). The method, then:
The peptides according to the general formula (I') exert an antagonist activity upon the LH-RH receptors in vivo, resulting in particular in the inhibition of ovulation.
The influence of α-, β- and γ-CD was tested on the activity of antide (an example of LH-RH peptide antagonist) when orally admininisted by gavage to normally cycling adult female Wistar rats between 1:30 and 3:00 p.m. on the day of proestrus, after at least two full regular estrous cycles as monitored by daily vaginal smears. The antiovulatory efficacy was checked the next morning, on the day of expected estrus, by looking for ova in the oviduct of treated females. The presence of at least one ovum attested that some degree of spontaneous ovulation did occur, and only the total absence of ovum was considered as effective LH-RH antagonist-induced inhibition of ovulation. Antide was solubilized in a vehicle consisting of 20% (vol/vol) propylene glycol in water already containing […], to which 10% (wt/vol) of either α-, β- or γ-CD was then added.
Each 5 mg powder vial of antide (from Bachem, Bubendorf, Switzerland) containing 4.2434 mg net peptide was dissolved in a mixture of 2.122 ml propylene glycol with 8.487 ml water containing 0.1% bovine albumin. To each 10.609 ml solution of antide (400 µg/ml), 1.061 g of either α-, β- or γ-CD was directly added to obtain a 10% concentration. Each female rat received the same volume of 1 ml of test formulation by gavage.
The same volume of administration was used for the doses of 200 and 600 µg/rat.

Where [4] appears, read: without α-CD (standard aqueous vehicle).
Where [5] appears, read: vehicle + α-CD (10%), antide 200 µg/rat p.o.
[6] abbreviates: vehicle + α-CD (10%), antide 400 µg/rat p.o.
Setting [7] is: vehicle + α-CD (10%), antide 600 µg/rat p.o.
The mark [8] stands for this setting: vehicle + β-CD (10%), antide 400 µg/rat p.o.
Setting [9] is: vehicle + γ-CD (10%), antide 400 µg/rat p.o.
Setting [10] is: vehicle only, antide 200 µg/rat p.o.
[11] abbreviates: vehicle only, antide 400 µg/rat p.o.
The mark [12] stands for this setting: vehicle only, antide 600 µg/rat p.o.

For the compound `CCNC(=O)[C@@H]1CCCN1C(=O)[C@H](CCCNC(=N)N)NC(=O)[C@H](CC(C)(C)C)NC(=O)[C@@H](C)NC(=O)[C@H](Cc1ccc(O)cc1)NC(=O)[C@H](CO)NC(=O)[C@H](Cc1c[nH]c2ccccc12)NC(=O)[C@H](Cc1c[nH]cn1)NC(=O)[C@@H]1CCC(=O)N1` [Example 2, [D-Ala^6, Npg7, desGly^10-ProNEt^9]LH-RH], the “total plasma LH (ng/ml) (m ± sem)” value on LH-RH receptors [1] (with α-CD (100 mM solution)) worked out at 19.7 ± 3.70 ng/mL; on LH-RH receptors [1] (without α-CD) it was 1.6 ± 0.14 ng/mL. The “stimulation of testosterone secretion” value on LH-RH receptors [2] (with 5% (51.4 mM) α-CD) was “did enhance”; at LH-RH receptors [2] (with 10% (103 mM) as well as 14% (144 mM) α-CD), “maximal level”. The “total plasma testosterone (nmol/l) (m ± sem)” value on LH-RH receptors [2] (with α-CD (100 mM solution)) stood at 72.8 ± 4.64 nmol/L; at LH-RH receptors [2] (setting [4]) it was 23.0 ± 8.54 nmol/L.

Turning to `CCNC(=O)[C@@H]1CCCN1C(=O)[C@H](CCCNC(=N)N)NC(=O)[C@H](CC(C)(C)C)NC(=O)[C@@H](Cc1ccccc1)NC(=O)[C@H](Cc1ccc(O)cc1)NC(=O)[C@H](CO)NC(=O)[C@H](Cc1c[nH]c2ccccc12)NC(=O)[C@H](Cc1c[nH]cn1)NC(=O)[C@@H]1CCC(=O)N1` [Example 4, [D-Phe^6, Npg7, desGly^10-ProNEt^9]LH-RH], the “total plasma LH (ng/ml) (m ± sem)” value amounted to 16.1 ± 5.22 ng/mL on LH-RH receptors [1] (with α-CD (100 mM solution)) and 1.4 ± 0.17 ng/mL on LH-RH receptors [1] (without α-CD). Moreover, the “total plasma testosterone (nmol/l) (m ± sem)” value on LH-RH receptors [2] (with α-CD (100 mM solution)) was determined as 67.9 ± 9.11 nmol/L; on LH-RH receptors [2] (setting [4]), 30.1 ± 5.86 nmol/L.

As for `CCNC(=O)[C@@H]1CCCN1C(=O)[C@H](CCCNC(=N)N)NC(=O)[C@H](CC(C)C)NC(=O)[C@@H](C)NC(=O)[C@H](Cc1ccc(O)cc1)NC(=O)[C@H](CO)NC(=O)[C@H](Cc1c[nH]c2ccccc12)NC(=O)[C@H](Cc1c[nH]cn1)NC(=O)[C@@H]1CCC(=O)N1` [Example 6, [D-Ala^6, desGly^10-ProNet^9]LH-RH], the “total plasma testosterone (nmol/l) (m ± sem)” value was found to be 61.8 ± 5.10 nmol/L on LH-RH receptors [2] (with α-CD (100 mM solution)) and 28.3 ± 4.56 nmol/L on LH-RH receptors [2] (setting [4]).

As to “[(S)spirolactam(Pro^6, Npg^7), desGly^10-ProNEt^9]LH-RH [Example 1]”, the figures for the “total plasma LH (ng/ml) (m ± sem)” value at LH-RH receptors [1] (with α-CD (100 mM solution)) and on LH-RH receptors [1] (without α-CD) were 7.1 ± 1.68 ng/mL and 1.5 ± 0.19 ng/mL, respectively. The “total plasma testosterone (nmol/l) (m ± sem)” value at LH-RH receptors [2] (with α-CD (100 mM solution)) amounted to 58.0 ± 8.75 nmol/L; on LH-RH receptors [2] (setting [4]) it was 40.1 ± 6.78 nmol/L.

As to [Npg^7]triptorelin [Example 5], the “total plasma LH (ng/ml) (m ± sem)” value on LH-RH receptors [1] (with α-CD (100 mM solution)) was 3.2 ± 0.56 ng/mL; at LH-RH receptors [1] (without α-CD) it was 1.4 ± 0.10 ng/mL. Also, the results for the “total plasma testosterone (nmol/l) (m ± sem)” value on LH-RH receptors [2] (with α-CD (100 mM solution)) and at LH-RH receptors [2] (setting [4]) were 52.1 ± 6.99 nmol/L and 15.8 ± 4.24 nmol/L, respectively.

On to antide, for which, at LH-RH receptors [3] (combined with β- or γ-CD (10%), dose level of 400), the “influence of Beta- and γ-CD on the minimal activity of antide” value is on record as “no influence”. Moreover, the “animals showing inhibition of ovulation” value at LH-RH receptors [3] (out of 22 animals, vehicle only, threshold dose of 400) amounted to 3. Further, the “n ovulations/ N treated rats” value on LH-RH receptors [3] (setting [5]) is 6/8; at LH-RH receptors [3] (setting [6]) it was 6/22; on LH-RH receptors [3] (setting [7]) it was 2/8; on LH-RH receptors [3] (setting [8]) it was 7/7; on LH-RH receptors [3] (setting [9]), 7/7; at LH-RH receptors [3] (setting [10]) it was 8/8. For the same compound, the “n ovulations/ N treated rats” value at LH-RH receptors [3] (setting [11]) is 19/22; at LH-RH receptors [3] (setting [12]) it was 5/8. The percentage of inhibition was 25% at LH-RH receptors [3] (setting [5]); 73% on LH-RH receptors [3] (setting [6]); 75% at LH-RH receptors [3] (setting [7]); 0% at LH-RH receptors [3] (setting [8]); 0% on LH-RH receptors [3] (setting [9]); 0% on LH-RH receptors [3] (setting [10]). The percentage of inhibition was 14% on LH-RH receptors [3] (setting [11]) and 44% at LH-RH receptors [3] (setting [12]). Besides, on LH-RH receptors [3] (vehicle only (no cyclodextrin), inhibition of ovulation), the “threshold effective dose by oral administration” value was determined as 400 µg/rat.

On to deslorelin, for which the “total plasma testosterone (nmol/l) (m ± sem)” value on LH-RH receptors [2] (with α-CD (100 mM solution)) was “marked potency”; on LH-RH receptors [2] (with α-CD (100 mM solution), listed as Deslorelin (α-CD)), 48.2 ± 7.29 nmol/L; at LH-RH receptors [2] (setting [4]), 9.7 ± 2.41 nmol/L; on LH-RH receptors [2] (without α-CD (standard aqueous vehicle), listed as deslorelin), “inactive”.

For the compound goserelin, the “total plasma testosterone (nmol/l) (m ± sem)” value at LH-RH receptors [2] (with α-CD (100 mM solution)) amounted to 66.5 ± 6.19 nmol/L; on LH-RH receptors [2] (setting [4]) it was 21.4 ± 5.99 nmol/L.

Turning to triptorelin, the “total plasma LH (ng/ml) (m ± sem)” value at LH-RH receptors [1] (with α-CD (100 mM solution)) came out at 10.1 ± 2.54 ng/mL; at LH-RH receptors [1] (without α-CD), 1.4 ± 0.10 ng/mL. In addition, the “total plasma testosterone (nmol/l) (m ± sem)” value on LH-RH receptors [2] (with α-CD (100 mM solution)) turned out to be 61.9 ± 6.01 nmol/L; on LH-RH receptors [2] (setting [4]), 25.8 ± 3.14 nmol/L.
